Article PMC7216467, “Evaluation of neuroprotective and anti-amnesic effects of Elaeagnus umbellata Thunb. On scopolamine-induced memory impairment in mice” (BMC Complementary Medicine and Therapies, 2020)

Key:
[1] = ABTS scavenging assay
Procedure: About 300 μL compounds working dilutions and 3.0 mL ABTS solutions were mixed and incubated for 6 min. Finally the absorbance was measured via UV spectrophotometer. Ascorbic acid was used as positive control. % ABTS scavenging potential was measured using eq. 4.

[2] = DPPH scavenging assay
Procedure: About 24 mg, DPPH was dissolved in 100 mL methanol. Compounds solutions (1 mg/mL) were also prepared in methanol. […] About 0.1 mL of each working dilution was mixed with DPPH (3.0 mL) and incubated at 25 °C for 30 min. […] Ascorbic acid was used as a standard.

[3] = biological target: T1, Acetyl cholinesterase (Electron-eel Type, VI-S) (Electrophorus electricus, UniProt O42275); assay: biochemical; type: biochemical; conditions: for IC50: linear regression, read-out: AChE IC50 (converted)
T1 construct: purchased Sigma-Aldrich, Germany
Procedure: Ellman assay was used to evaluate E. umbellata fruit extracts and isolated compounds for their anticholinesterase potentials. About 205 μL extract/compound solutions and 5 μL of AChE (0.03 U/mL)/BChE (0.01 U/mL) along with catalyst DTNB (5 μL) were taken in a cuvette and kept at 30 °C in hot water bath for 15 min. […] As a negative control solution all the above mentioned components except extracts and isolated compounds were mixed in the mentioned order.
V is inhibitor dependent rate of reaction while, Vmax is inhibitor independent rate of reaction.

[4] = system: scopolamine-induced cognitive impairment in mice; assay: Novel object recognition test, scopolamine-induced amnesia; type: in vivo; conditions: donepezil 2 mg/kg
Procedure: (§1) After the acclimatization period, in scopolamine-induced amnesia test the Albino male mice were randomly divided into six groups (n = 6) to study the effect of CHF. […] The doses of tested solutions of CHF. […] The treatments were continued for 8 days. In the Y-maze and Novel object recognition tests, scopolamine (1 mg/kg, i.p.) was given to the different groups only on the 8th day, 30 min after the respective treatments, to induce cognitive deficit in mice. One hour after administration of the drugs all animals were subjected to Y-maze and Novel object recognition test following standard procedure.
The detail methodology published, was followed while performing the novel object recognition (NORT) test. NORT consisting of habituation, sample, and test phases. On the day before test, mice were allowed to explore the box (without any object) for 2 min. On the day of test after habituation the sample phase was carried out 60 min after the last treatment on the 8th day. In sample phase each mouse was placed in an open field with two identical objects (plastic ball) for 5 min. The mouse was then returned to its home cage. The apparatus was comprised of a white coloured plywood box (40 cm × 40 cm × 66 cm) with a network floors that could be effortlessly cleaned (with 70%v/v ethanol) after every trial. The apparatus was illuminated by a 60 W light suspended 50 cm over the crate. The arena and objects were cleaned with 70% v/v ethanol between trials to avoid olfactory cues. For short-term memory, the test phase was performed 5 min after the sample phase. In the test phase, each mouse was placed again in the open field in which one of the identical objects had been replaced with a novel object (plastic square). The location of the object was counterbalanced so that one half of the mice in each group saw the novel object on the left side of the box arena, and the other half saw the novel object on the right side of the box arena to eliminate bias of sides. NORT can also be used for encoding and retrieval of spatial memory (long-term memory). A wash-out period of 5 days was allowed before the NORT to assess long-term memory in mice. The procedure was the same as that for short-term memory except that mice were presented in the test phase 24 h after the sample phase exposure. The time spent exploring each object in each phase was recorded manually using a stopwatch. A mouse was scored as exploring when its head was oriented towards the object within a distance of 2 cm or when the nose was in contact with the object. Parameters including the time (in seconds) spent exploring familiar (F) object, time (in seconds) spent exploring the novel (N) object, and total time (in seconds) spent exploring both objects (N + F) were measured separately.

[5] = system: scopolamine-induced cognitive impairment in mice; assay: Y-maze test, scopolamine-induced amnesia; type: in vivo
Procedure: as §1
The Y-Maze test was designed to evaluate the short term memory in experimental mice using reported procedure. Y-maze apparatus is Y shaped with three arms of equivalent size, labelled as A, B, and C. Each arm was 20 cm long, 6 cm wide and 15.5 cm high and was oriented at an angle of 120° from the other two. For each animal the Y maze testing was carried out for 5 min. Mice were placed in one arm, and the order and number of arm entries were recorded. An arm entry was considered to be complete when the hind paws of the mice was completely inside a given arm while alternation was defined as consecutive entries by a mouse into the three different arms. The arena was cleaned using 70% v/v ethanol between each trial to avoid olfactory cues. The escape latency (second) on day 1–5 were recorded for all animals. At the end of 5th day, the spontaneous alteration behavior study was conducted. In spontaneous alteration study, each animal was placed at the center of the Y-Maze apparatus and allowed to move freely through the maze. The series of arm entries were visually recorded. To start behavioral test the mice was set in one arm and recorded the number of arm entries, same arm returns (SAR), and alternate arm returns (AAR) were measured. Percent spontaneous alternation performance (SAP) was calculated by the following formula: 5 %SAP=Active alterationstotal alterations/Possible alterationstotalarmentries−2x100

[6] = vs scopolamine (1 mg/kg) group, CHF. Ext 200 mg/kg, CGA 10 and 30 mg/kg, donepezil 2 mg/kg

T1 sequence (O42275 24-633): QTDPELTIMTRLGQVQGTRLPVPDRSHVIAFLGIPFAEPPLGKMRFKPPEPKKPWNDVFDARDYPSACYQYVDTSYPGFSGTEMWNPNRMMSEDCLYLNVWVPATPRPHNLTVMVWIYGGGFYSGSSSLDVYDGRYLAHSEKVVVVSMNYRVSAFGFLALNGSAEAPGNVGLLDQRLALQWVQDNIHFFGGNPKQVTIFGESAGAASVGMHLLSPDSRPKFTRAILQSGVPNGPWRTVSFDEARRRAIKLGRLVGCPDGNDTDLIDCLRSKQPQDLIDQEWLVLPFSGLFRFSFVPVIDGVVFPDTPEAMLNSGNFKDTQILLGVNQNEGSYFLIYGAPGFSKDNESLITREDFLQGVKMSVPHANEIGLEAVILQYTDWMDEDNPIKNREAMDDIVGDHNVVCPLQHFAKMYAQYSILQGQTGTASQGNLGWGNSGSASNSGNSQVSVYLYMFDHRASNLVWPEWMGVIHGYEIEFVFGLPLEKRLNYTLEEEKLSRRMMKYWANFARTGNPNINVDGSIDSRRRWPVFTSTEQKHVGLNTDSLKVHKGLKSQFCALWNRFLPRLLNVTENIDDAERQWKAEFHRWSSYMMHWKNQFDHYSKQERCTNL

O=C1O[C@H]([C@@H](O)CO)C(O)=C1O [Ascorbic acid, reference compound]
ABTS IC50 [1]: 32 µg/mL | % ABTS Scavenging Mean ± SEM ([1]; 31.05 µg/mL): 56±1.1% | % ABTS Scavenging Mean ± SEM ([1]; 62.5 µg/mL): 64±1.0% | % ABTS Scavenging Mean ± SEM ([1]; 125 µg/mL): 70±0.5% | % ABTS Scavenging Mean ± SEM ([1]; 250 µg/mL): 78±0.5% | % ABTS Scavenging Mean ± SEM ([1]; 500 µg/mL): 84±1.1% | % ABTS Scavenging Mean ± SEM ([1]; 1000 µg/mL): 90±0.5% | DPPH IC50 [2]: 29 µg/mL | % DPPH Scavenging Mean ± SEM ([2]; 31.05 µg/mL): 69±0.4% | % DPPH Scavenging Mean ± SEM ([2]; 62.5 µg/mL): 73±0.5% | % DPPH Scavenging Mean ± SEM ([2]; 125 µg/mL): 77±0.4% | % DPPH Scavenging Mean ± SEM ([2]; 250 µg/mL): 80±0.4% | % DPPH Scavenging Mean ± SEM ([2]; 500 µg/mL): 86±1.0% | % DPPH Scavenging Mean ± SEM ([2]; 1000 µg/mL): 91±0.5%

O=c1oc2c(O)c(O)cc3c(=O)oc4c(O)c(O)cc1c4c23 [Compound-II, Ellagic acid]
ABTS IC50 [1]: 44 µg/mL | % ABTS Scavenging Mean ± SEM ([1]; 31.05 µg/mL): 41±0.5 % | % ABTS Scavenging Mean ± SEM ([1]; 62.5 µg/mL): 49±1.0 % | % ABTS Scavenging Mean ± SEM ([1]; 125 µg/mL): 57±1.0 % | % ABTS Scavenging Mean ± SEM ([1]; 250 µg/mL): 64±0.3 % | % ABTS Scavenging Mean ± SEM ([1]; 500 µg/mL): 65±0.4 % | % ABTS Scavenging Mean ± SEM ([1]; 1000 µg/mL): 69±1.0 % | % AChE Mean ± SEM ([3]; 31.05 µg/mL): 41±0.3 % | % AChE Mean ± SEM ([3]; 62.5 µg/mL): 48±0.5 % | % AChE Mean ± SEM ([3]; 125 µg/mL): 52±0.4 % | % AChE Mean ± SEM ([3]; 250 µg/mL): 68±0.1 % | % AChE Mean ± SEM ([3]; 500 µg/mL): 75±0.4 % | % AChE Mean ± SEM ([3]; 1000 µg/mL): 81±0.5 % | IC50 [3]: 195 µM | DPPH IC50 [2]: 39 µg/mL | % DPPH Scavenging Mean ± SEM ([2]; 31.05 µg/mL): 44±1.4 % | % DPPH Scavenging Mean ± SEM ([2]; 62.5 µg/mL): 57±0.5 % | % DPPH Scavenging Mean ± SEM ([2]; 125 µg/mL): 59±0.4 % | % DPPH Scavenging Mean ± SEM ([2]; 250 µg/mL): 60±1.2 % | % DPPH Scavenging Mean ± SEM ([2]; 500 µg/mL): 70±0.5 % | % DPPH Scavenging Mean ± SEM ([2]; 1000 µg/mL): 77±1.1 %

O=C(O)c1cc(O)c(O)c(O)c1 [Compound-III, Gallic acid]
ABTS IC50 [1]: 54 µg/mL | % ABTS Scavenging Mean ± SEM ([1]; 31.05 µg/mL): 43±1.3 % | % ABTS Scavenging Mean ± SEM ([1]; 62.5 µg/mL): 48±0.4 % | % ABTS Scavenging Mean ± SEM ([1]; 125 µg/mL): 50±1.5 % | % ABTS Scavenging Mean ± SEM ([1]; 250 µg/mL): 54±1.1 % | % ABTS Scavenging Mean ± SEM ([1]; 500 µg/mL): 60±0.5 % | % ABTS Scavenging Mean ± SEM ([1]; 1000 µg/mL): 65±2.1 % | % AChE Mean ± SEM ([3]; 31.05 µg/mL): 39±0.5 % | % AChE Mean ± SEM ([3]; 62.5 µg/mL): 43±1.1 % | % AChE Mean ± SEM ([3]; 125 µg/mL): 49±1.4 % | % AChE Mean ± SEM ([3]; 250 µg/mL): 55±0.3 % | % AChE Mean ± SEM ([3]; 500 µg/mL): 62±1.2 % | % AChE Mean ± SEM ([3]; 1000 µg/mL): 76±2.1 % | IC50 [3]: 265 µM | DPPH IC50 [2]: 52 µg/mL | % DPPH Scavenging Mean ± SEM ([2]; 31.05 µg/mL): 43±1.4 % | % DPPH Scavenging Mean ± SEM ([2]; 62.5 µg/mL): 48±0.5 % | % DPPH Scavenging Mean ± SEM ([2]; 125 µg/mL): 50±1.2 % | % DPPH Scavenging Mean ± SEM ([2]; 250 µg/mL): 59±1.5 % | % DPPH Scavenging Mean ± SEM ([2]; 500 µg/mL): 70±1.1 % | % DPPH Scavenging Mean ± SEM ([2]; 1000 µg/mL): 76±0.5 %

Oc1cc(O)cc(O)c1 [Compound-IV, Phloroglucinol]
ABTS IC50 [1]: 112 µg/mL | % ABTS Scavenging Mean ± SEM ([1]; 31.05 µg/mL): 25±1.0 % | % ABTS Scavenging Mean ± SEM ([1]; 62.5 µg/mL): 33±0.5 % | % ABTS Scavenging Mean ± SEM ([1]; 125 µg/mL): 39±1.2 % | % ABTS Scavenging Mean ± SEM ([1]; 250 µg/mL): 45±1.0 % | % ABTS Scavenging Mean ± SEM ([1]; 500 µg/mL): 51±0.5 % | % ABTS Scavenging Mean ± SEM ([1]; 1000 µg/mL): 54±1.1 % | % AChE Mean ± SEM ([3]; 31.05 µg/mL): 21±1.5 % | % AChE Mean ± SEM ([3]; 62.5 µg/mL): 29±2.1 % | % AChE Mean ± SEM ([3]; 125 µg/mL): 34±1.5 % | % AChE Mean ± SEM ([3]; 250 µg/mL): 40±0.5 % | % AChE Mean ± SEM ([3]; 500 µg/mL): 52±1.6 % | % AChE Mean ± SEM ([3]; 1000 µg/mL): 66±1.2 % | IC50 [3]: 730 µM | DPPH IC50 [2]: 105 µg/mL | % DPPH Scavenging Mean ± SEM ([2]; 31.05 µg/mL): 32±0.5 % | % DPPH Scavenging Mean ± SEM ([2]; 62.5 µg/mL): 36±1.1 % | % DPPH Scavenging Mean ± SEM ([2]; 125 µg/mL): 40±0.5 % | % DPPH Scavenging Mean ± SEM ([2]; 250 µg/mL): 51±1.0 % | % DPPH Scavenging Mean ± SEM ([2]; 500 µg/mL): 57±1.0 % | % DPPH Scavenging Mean ± SEM ([2]; 1000 µg/mL): 67±0.4 %

COc1cc2c(cc1OC)C(=O)C(CC1CCN(Cc3ccccc3)CC1)C2 (centres unmarked) [Donepezil, reference compound]
time for exploration of novel object, test phase, long term memory ([4]; CHF. Ext 100 & 200 mg/kg, CGA 10 & 30 mg/kg): significant (*p < 0.05, **p < 0.01) increase | %DI, long term memory ([4]; CHF. Ext 100, 200 mg/kg, CGA 10 & 30 mg/kg): significant (*p < 0.05, **p < 0.01) increase | time with novel object, test phase, short term memory ([4]; vs scopolamine group (*p < 0.05, **p < 0.01), CHF. Ext 50, 100, 200 mg/kg, CGA 10 and 30 mg/kg): more time with novel object | escape latency ([5]; day 1-5, vs scopolamine treated group): significant decline (p < 0.001) | percentage of alternate arm returns [5, 6]: significant (*p<0.05; **p < 0.01) increase | percentage of same arm returns [5, 6]: significant (p < 0.01) reduction
